Data set [1] relates to tracheal secretion of phenol red. Description: Secretostimulating activity: tracheal secretion of phenol red after oral administration to non-anaesthetized mice. Type of data set: in vivo. The following applies: for ED50: Table I, non-anaesthetized mice, promotion of tracheal phenol red secretion, calculated from regression curves. The method, then:
The increase in the tracheal secretion of phenol red is a measure of bronchosecretolytic activity. The relevant activity of the test substances was studied after oral administration to non-anaesthetized mice. The ED50 -values indicated in Table I were calculated using the regression curves.

The subject of a further data set is bronchial mucus. Description: Mucosecretolytic activity in dogs: viscosity of bronchial mucus after i.v. administration. Type of data set: in vivo, mongrel dogs. The following applies: for Viscosity, 1 hour after administration: 1 hour after 10 mg/kg i.v.; for Viscosity, 1 hour after administration / Viscosity, initial value: mucus 1% w/v in 0.1M tris-buffer pH 7; for reduction in the viscosity of the bronchial mucus (in words): i.v., dogs, identical quantity by weight; for Viscosity, initial value: immediately before administration, 10 mg/kg i.v., baseline. The method, then:
Bronchial mucus was removed by means of a bronchoscope from anaesthetized mongrel dogs immediately before and 1 hour after intravenous administration of the test substances and taken up in phosphate buffer. After dialyzation and freeze-drying, the mucus samples were taken up in 0.1M tris-buffer (pH 7) (final concentration 1% w/v). Viscosity was measured by means of a rotary viscosimeter (as manufactured by Contraves, Stuttgart).

The next data set concerns mice. Particulars: p.o., under identical conditions; cited from earlier work.
Data set [2] is described as follows: Acute oral toxicity in mice. The following applies: mouse, in vivo, p.o. The source says:
The compounds according to the invention show low oral toxicity in acute tests.

Counter-ions that a name gives are not always drawn. Like-named read-outs stand apart in the source and are kept apart here.

What is called ED50 is the dose at which the effect has come halfway, by size or by number of responders. The term LD50 denotes the dose at which mortality reaches 50%. A higher LD50 goes with lower toxicity.

For “2-(methylthio-3-pyridyl)-oxazolo(4,5-c) pyridine dihydrochloride [Example 10]”, in data set [1], the median effective dose (ED50) is reported as 12 mg/kg.

For the molecule `Nc1c(Br)cc(Br)cc1CN[C@H]1CC[C@H](O)CC1` [Ambroxol, trans-4-(2-amino-3,5-dibromobenzyl)-aminocyclohexanol, reference compound], the ED50 in data set [1] (Mus musculus, read-out: ED50) was 250 mg/kg. Moreover, in the data set on bronchial mucus, the “Viscosity, 1 hour after administration” value is listed as 2.3 mPa × s; the “reduction in the viscosity of the bronchial mucus (in words)” value was “distinct reduction in the viscosity of the bronchial mucus”; the “Viscosity, initial value” is reported as 3.8 mPa × s. The “toxicity compared with 2-(pyridyl-3-methylthio)-pyrimidine hydrochloride (in words)” value in the data set on mice is “slidingly less toxic”.

Consider `c1cnc(SCc2cccnc2)nc1` [Example 1, 2-(pyridyl-3-methylthio)-pyrimidine hydrochloride], for which the ED50 in data set [1] (Mus musculus, read-out: ED50) was 1.5 mg/kg. Also, the “activity in promoting tracheal secretion of phenol red (in words)” value in data set [1] (mice, among compounds of Table I) is listed as “strongest activity”. For the same molecule, the “effect in promoting the secretion of phenol red relative to Ambroxol” value in data set [1] (mice, times stronger than Ambroxol) is recorded as “approximately 160 times”. In addition, in the data set with bronchial mucus, the “Viscosity, 1 hour after administration” value turned out to be 1.2 mPa × s; the “reduction in the viscosity of the bronchial mucus (in words)” value is recorded as “even more distinct reduction in the viscosity of the bronchial mucus”; the “Viscosity, initial value” came to 3.9 mPa × s. This molecule also showed an LD50 in data set [2] of 1160 mg/kg.

On to `c1ccc(CSc2ncccn2)nc1` [Example 2, 2-(pyridyl-2-methylthio)-pyrimidine hydrochloride], for which, in data set [1] (Mus musculus, read-out: ED50), the ED50 is 400 mg/kg.

On to `Cc1ccnc(SCc2cccnc2)n1` [Example 3, 2-(pyridyl-3-methylthio)-4-methyl-pyrimidine hydrochloride], for which the ED50 in data set [1] (Mus musculus, read-out: ED50) was 10 mg/kg.

As for `Cc1cc(C)nc(SCc2cccnc2)n1` [Example 4, 2-(pyridyl-3-methylthio)-4,6-dimethyl-pyrimidine hydrochloride], the ED50 in data set [1] (Mus musculus, read-out: ED50) is 12 mg/kg.

Consider `c1ccc(SCc2cccnc2)nc1` [Example 5, 2-(pyridyl-3-methylthio)-pyridine dihydrochloride], for which the ED50 in data set [1] (Mus musculus, read-out: ED50) is 2.1 mg/kg.

In the case of `c1ccc(CSc2ccccn2)nc1` [Example 6, 2-(pyridyl-2-methylthio)-pyridine dihydrochloride], the median effective dose (ED50) in data set [1] (Mus musculus, read-out: ED50) was 6.3 mg/kg.

Turning to `c1cncc(CSc2nc3ccccc3o2)c1` [Example 7], the 50% effective dose (ED50) in data set [1] (Mus musculus, read-out: ED50) is 15 mg/kg.

As for `Cc1ccc2nc(SCc3cccnc3)oc2c1` [Example 8, hydrochloride], the ED50 in data set [1] (Mus musculus, read-out: ED50) was 15 mg/kg.

Regarding `c1ccc(CSc2nc3ccccc3o2)nc1` [Example 9, 2-(methylthio-2-pyridyl)-benzoxazole oxalate], in data set [1] (Mus musculus, read-out: ED50), the ED50 was 45 mg/kg.

These data come from patent US4866066A, “Thiomethylpyridine derivatives and their use for eliciting a bronchosecretolytic or mucolytic response” (Ludwig Heumann & Co. GmbH, priority 1982, dated 1989).
